# Laboratory results taken from patent US20260224538A1 (Purdue Research Foundation, priority 2023, published 2026).
# Target: T1, tau isoform 2N4R (Homo sapiens, UniProt P10636)
# T1 construct: made in house; host or cells: E. coli BL21(DE3)
# Test: ThT kinetics of tau isoform 2N4R fibril formation
# Format: biochemical
# Description: The bacterial expression plasmid consisting of the vector pRK172 carrying a cDNA encoding the human Tau 2N4R isoform was obtained from Dr. David Eliezer (Weill Cornell Medicine, New York, NJ). For protein expression, E. coli BL21(DE3) cells were transformed with the plasmid and grown in LB media supplemented with ampicillin (100 μg/mL). Protein over-expression was induced by the addition of 1 mM IPTG for 4 hours at 37° C., and cells were pelleted by centrifugation at 6,000 g for 15 minutes at 4° C. The cells were resuspended in lysis buffer (20 mM MES, 400 mM NaCl, 0.2 mM MgCl2, 1 mM EGTA, protease inhibitor cocktail (P8340, Sigma Aldrich), 0.25 mg/mL lysozyme, and 1 μg/mL DNase 1, pH 6.8) and lysed by a French press cell disruptor at 4° C., after which the lysate was boiled for 20 minutes. Denatured proteins were pelleted by centrifugation at 30,000 g for 30 minutes at 4° C., and the supernatant was dialyzed overnight against cation exchange buffer (20 mM MES, 50 mM NaCl, 1 mM MgCl2, 1 mM EGTA, 2 mM DTT, 0.1 mM PMSF, pH 6.8). The dialysate was loaded onto a HiPrep SP HP column, and proteins were eluted with a linear gradient ranging from 50 mM to 1 M NaCl. Fractions containing tau isoform 2N4R were pooled, and the resulting protein solution was dialyzed against PBS (pH 7.4) and stored at −80° C.
# Compounds with the highest anti-fibrillary activity were tested at 3.125, 6.25, 12.5, 25, 50, and 100 μM to obtain dose-response curves with prepared α-syn and 2N4R tau at 6.25 μM and 6 μM, respectively. Compounds were tested with α-syn using a previously published procedure. Concerning the tau (isoform 2N4R) kinetics of fibril formation, measurements of ThT fluorescence were performed with a solution of the protein diluted to a final concentration of 6 μM in PBS (pH 7.4) supplemented with 1.5 μM heparin, 20 μM ThT, 2.5 mM DTT, and 100 μM compound. Aliquots of the diluted protein solution (100 μL each) were pipetted into the wells of a 96-well plate, and a Teflon ball was added to each well. The plate was incubated at 37° C. with constant shaking at 1,000 rpm in a Tecan Spark plate reader. ThT fluorescence was measured every 15 minutes with excitation and emission wavelengths of 440 nm and 480 nm, and the data were plotted using GraphPad Prism.
# T1 sequence (P10636 1-441 isoform P10636-8): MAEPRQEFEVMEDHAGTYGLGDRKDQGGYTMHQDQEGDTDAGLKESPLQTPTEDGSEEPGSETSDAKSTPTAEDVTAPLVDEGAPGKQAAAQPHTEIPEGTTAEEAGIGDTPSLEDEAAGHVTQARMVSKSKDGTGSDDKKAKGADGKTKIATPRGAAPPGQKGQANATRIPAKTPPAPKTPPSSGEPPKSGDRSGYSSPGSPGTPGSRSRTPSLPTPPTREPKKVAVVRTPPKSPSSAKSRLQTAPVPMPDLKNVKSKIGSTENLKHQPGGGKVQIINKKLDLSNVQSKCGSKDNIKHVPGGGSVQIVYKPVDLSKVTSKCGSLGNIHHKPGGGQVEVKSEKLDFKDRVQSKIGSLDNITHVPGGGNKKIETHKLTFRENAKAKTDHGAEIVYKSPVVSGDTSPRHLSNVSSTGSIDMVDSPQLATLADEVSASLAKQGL
structure (smiles),measurement,setting,value
"Nc1nsc2ccc([N+](=O)[O-])cc12 [A, 5-nitro-1,2-benzothiazol-3-amine]","tau isoform 2N4R fibrillization (ThT), dose response","3.125-100 μM, at 15 hours",protein fibrillization was reduced
same,lag time of tau isoform 2N4R fibril formation,"tau 6 μM, compound 100 μM",delayed the lag time
same,production of tau isoform 2N4R fibrils (ThT kinetic aggregation curves),"tau 6 μM, compound 100 μM",demonstrating the best anti-fibrillary activity
